Assay results taken from US5516647A, “Compounds useful as alkaline phosphatase inhibitors and therapeutic agents” (Abbott Laboratories, priority 1993, dated 1996).
“Also recorded” adds a separate entry of the source. Where two headings read alike, the source gives them in different places.

What was measured:
human placental AP = biological target: T1, human placental AP (Homo sapiens, UniProt P05187); assay: Inhibition of human placental AP isoenzyme (p-nitrophenylphosphate hydrolysis); format: biochemical; settings: for order of effectiveness, placental isoenzymes / effectiveness against placental isoenzymes: FIG. 5; for inhibition of the placental isoenzymes: FIG. 7, at the concentration compared with E. coli AP; for times more potent than L-phenylalanine, placental isoenzymes: ratio to L-phenylalanine; for times more potent than levamisole, placental isoenzymes: ratio to levamisole
T1 construct: purchased Sigma Chemical Co., St. Louis, Mo
T1 sequence (P05187 23-506 limits assumed): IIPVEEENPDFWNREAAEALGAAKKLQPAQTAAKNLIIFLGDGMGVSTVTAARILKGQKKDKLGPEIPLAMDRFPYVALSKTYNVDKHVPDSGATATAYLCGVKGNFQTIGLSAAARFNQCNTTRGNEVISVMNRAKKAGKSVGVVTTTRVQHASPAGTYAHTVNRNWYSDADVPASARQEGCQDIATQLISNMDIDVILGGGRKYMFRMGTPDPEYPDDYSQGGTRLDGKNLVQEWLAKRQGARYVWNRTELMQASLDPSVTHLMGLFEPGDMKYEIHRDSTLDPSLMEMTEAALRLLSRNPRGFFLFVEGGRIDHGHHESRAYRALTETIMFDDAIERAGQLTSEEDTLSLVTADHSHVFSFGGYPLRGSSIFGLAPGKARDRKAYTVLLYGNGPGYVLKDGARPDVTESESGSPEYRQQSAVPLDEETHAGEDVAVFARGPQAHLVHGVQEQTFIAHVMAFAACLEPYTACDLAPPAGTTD
Procedure: (§1) Human intestinal AP was obtained from Aalto Scientific, Ltd. Vista, Calif. […] L-Phenylalanine was obtained from Aldrich Chemical Company, Milwaukee, Wis. Human bone AP was isolated from human osteosarcoma-derived cell line, Saos-2 (Catalog No. HTB 85, The American Type Culture Collection, 12301 Parklawn Drive, Rockville, Md.) by butanol extraction as described by J. R. Farley et al., (1989) Clin Chem. 35, 223-229.
(§2) AP activity was determined with VP Bichromatic Analyzer (Abbott Laboratories) by monitoring the appearance of the yellow product, p-nitrophenol, produced as a result of the enzyme catalyzed hydrolysis of the colorless substrate, p-nitrophenylphosphate. The stock preparations of E. coli and human AP were diluted to 0.3-1.0 U/ml with 0.1M Tris buffer, pH 8.0, containing 1 mM magnesium chloride, 0.1 mM zinc chloride and 5 mg/ml bovine serum albumin. […] The diluted enzyme solutions were prepared fresh just before the start of the experiments. The final assay conditions for the human and E. coli AP were as follows:
(§3) Human AP Isoenzymes: p-Nitrophenylphosphate (2.2 mmol/liter); Diethanolamine (500 mmol/liter); Magnesium chloride (1 mmol/liter); Zinc chloride (0.1 mmol/liter). The reaction pH was 10.2 at a reaction temperature of 37° C. and volume fraction (sample/total) of 0.033 (1:30).
(§4) The diluted enzymes and inhibitors at appropriate concentrations (as shown in the Figures) were hand pipetted into numbered cuvettes in the multicuvette assembly of the VP Bichromatic Analyzer. Once the assay was started, the analyzer dispensed an appropriate amount of the buffered solution of p-nitrophenylphosphate containing magnesium and zinc chlorides into each cuvette. The multicuvette assembly rotated and allowed measurement of absorbance changes at every two minutes intervals. A 415 nm-450 nm filter was used to assay AP activity. All enzyme activity measurements were done at least in duplicate and the average value was used in the data analyses.
(§5) The I50 value for APl-3 is similarly calculated from its dose response curve.

human bone AP = biological target: T2, human bone AP (Homo sapiens, UniProt P05186); assay: Inhibition of human bone AP isoenzyme (p-nitrophenylphosphate hydrolysis); format: biochemical; settings: for order of potency as inhibitors of bone AP: FIG. 4; for IC50: read-out: [I]50 Bone AP: concentration of inhibitor that gives 50% inhibition of enzyme activity; for times more active than levamisole, bone isoenzymes: ratio to levamisole
T2 construct: Human bone AP was isolated from human osteosarcoma-derived cell line, Saos-2; host or cells: Saos-2 (human osteosarcoma-derived cell line, ATCC), butanol extraction
T2 sequence (P05186 18-502 limits assumed): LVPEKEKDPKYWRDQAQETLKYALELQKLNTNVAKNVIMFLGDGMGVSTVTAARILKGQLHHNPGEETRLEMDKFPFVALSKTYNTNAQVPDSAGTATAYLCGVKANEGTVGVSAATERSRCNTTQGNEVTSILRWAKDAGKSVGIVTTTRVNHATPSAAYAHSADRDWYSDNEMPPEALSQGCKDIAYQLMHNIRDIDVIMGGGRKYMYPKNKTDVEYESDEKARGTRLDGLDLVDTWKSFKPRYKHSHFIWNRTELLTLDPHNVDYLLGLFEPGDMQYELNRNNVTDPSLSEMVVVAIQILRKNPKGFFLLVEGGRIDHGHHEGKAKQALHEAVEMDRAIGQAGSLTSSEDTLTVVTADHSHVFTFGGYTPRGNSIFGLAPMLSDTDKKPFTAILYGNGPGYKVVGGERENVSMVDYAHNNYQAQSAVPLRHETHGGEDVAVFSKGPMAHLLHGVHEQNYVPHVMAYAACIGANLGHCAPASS
Procedure: as §1, §2, §3, §4, §5

human intestinal AP = biological target: T3, human intestinal AP (Homo sapiens, UniProt P09923); assay: Inhibition of human intestinal AP isoenzyme (p-nitrophenylphosphate hydrolysis); format: biochemical; settings: for effectiveness against intestinal isoenzymes / order of effectiveness, intestinal isoenzymes: FIG. 6; for inhibition of the intestinal isoenzymes: FIG. 7, at the concentration compared with E. coli AP; for times as potent/effective as L-phenylalanine, intestinal isoenzymes: ratio to L-phenylalanine; for times as potent/effective as levamisole, intestinal isoenzymes: ratio to levamisole
T3 construct: purchased Aalto Scientific, Ltd., Vista, Calif
T3 sequence (P09923 20-503 limits assumed): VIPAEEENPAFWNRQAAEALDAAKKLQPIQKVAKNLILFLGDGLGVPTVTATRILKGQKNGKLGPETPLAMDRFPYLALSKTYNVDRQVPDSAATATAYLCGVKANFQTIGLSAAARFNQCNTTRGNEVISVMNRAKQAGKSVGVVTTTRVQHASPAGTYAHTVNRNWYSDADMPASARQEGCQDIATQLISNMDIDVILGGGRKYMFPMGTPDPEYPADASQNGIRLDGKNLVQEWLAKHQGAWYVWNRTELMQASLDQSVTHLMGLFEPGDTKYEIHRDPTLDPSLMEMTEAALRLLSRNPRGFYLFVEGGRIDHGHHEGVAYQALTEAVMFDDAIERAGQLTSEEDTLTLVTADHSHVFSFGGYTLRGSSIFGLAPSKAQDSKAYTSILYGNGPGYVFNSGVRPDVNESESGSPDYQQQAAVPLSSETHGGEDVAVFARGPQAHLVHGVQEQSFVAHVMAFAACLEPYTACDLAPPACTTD
Procedure: as §1, §2, §3, §4, §5

E. coli AP = assay: Inhibition of (altered) E. coli AP (p-nitrophenylphosphate hydrolysis); format: biochemical; settings: FIG. 7, at the concentration inhibiting human isoenzymes, high concentrations
Procedure: E. coli AP (APKJ3 and APKJ4) were obtained according to the methods disclosed in U.S. patent Ser. No. 08/031,165 and its CIP. APKJ4 is an E. coli AP in which the lysine at its position 177 has been replaced with cysteine.
as §2
E. coli AP: P-Nitrophenylphosphate (1 mmol/liter); Tris-chloride (100 mmol/liter); Magnesium chloride (1 mmol/liter); and Zinc chloride (0.1 mmol/liter). The reaction pH was 8.0 at a reaction temperature of 37° C. and volume fraction (sample/total) of 0.033 (1:30).
as §4

calf intestinal AP [1] = biological target: T4, calf intestinal AP (Bos taurus, UniProt P19111); assay: Inhibition of calf intestinal AP; format: biochemical; settings: for inhibition of calf intestinal AP versus E. coli AP: compared with E. coli AP; for inhibition of calf intestinal AP versus L-phenylalanine and levamisole: compared with L-phenylalanine and levamisole; for inhibition of calf intestinal AP versus human intestinal AP: compared with human intestinal AP
T4 sequence (P19111 20-506): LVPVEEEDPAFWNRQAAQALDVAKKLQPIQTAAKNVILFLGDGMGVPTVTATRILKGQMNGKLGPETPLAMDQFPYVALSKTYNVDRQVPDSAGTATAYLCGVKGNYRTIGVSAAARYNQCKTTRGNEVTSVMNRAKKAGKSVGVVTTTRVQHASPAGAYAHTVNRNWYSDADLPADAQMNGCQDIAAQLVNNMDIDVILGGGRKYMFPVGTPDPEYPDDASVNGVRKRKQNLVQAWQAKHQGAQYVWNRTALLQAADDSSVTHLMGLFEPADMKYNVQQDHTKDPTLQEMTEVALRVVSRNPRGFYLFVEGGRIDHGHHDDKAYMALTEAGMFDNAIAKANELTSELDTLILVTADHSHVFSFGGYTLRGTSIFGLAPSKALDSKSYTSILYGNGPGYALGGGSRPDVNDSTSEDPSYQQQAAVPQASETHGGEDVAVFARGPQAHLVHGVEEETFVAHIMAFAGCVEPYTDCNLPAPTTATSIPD

human AP = assay: Selectivity for human AP versus E. coli AP; format: biochemical; settings: FIG. 7
Procedure: as §2, §3
E. coli AP: P-Nitrophenylphosphate (1 mmol/liter); Tris-chloride (100 mmol/liter); Magnesium chloride (1 mmol/liter); and Zinc chloride (0.1 mmol/liter). […]
The diluted enzymes and inhibitors at appropriate concentrations (as shown in the Figures) were hand pipetted into numbered cuvettes in the multicuvette assembly of the VP Bichromatic Analyzer. […] The multicuvette assembly rotated and allowed measurement of absorbance changes at every two minutes intervals. […]

AP = settings: cited from earlier work
tissue-nonspecific AP = settings: background art; cited from earlier work
calf intestinal AP [2] = biological target: T4, calf intestinal AP; settings: used in an immunoassay; cited from earlier work
[3] = tested on: placental and intestinal isoenzymes; settings: background art; cited from earlier work
[4] = pH 10.2, 37° C., p-nitrophenylphosphate 2.2 mmol/liter, from dose response curves, read-out: [I]50 Placental AP: concentration of inhibitor that gives 50% inhibition of enzyme activity
[5] = pH 10.2, 37° C., p-nitrophenylphosphate 2.2 mmol/liter, from dose response curves
[6] = pH 10.2, 37° C., p-nitrophenylphosphate 2.2 mmol/liter, from dose response curves, read-out: [I]50 Intestinal AP: concentration of inhibitor that gives 50% inhibition of enzyme activity

Compound | order of effectiveness, placental isoenzymes (human placental AP) | inhibition of the placental isoenzymes (human placental AP) [%] | IC50 (human placental AP; [4]) [µM] | times more potent than L-phenylalanine, placental isoenzymes (human placental AP) [times] | times more potent than levamisole, placental isoenzymes (human placental AP) [times] | order of potency as inhibitors of bone AP (human bone AP) | IC50 (human bone AP; [5]) [nM] | times more active than levamisole, bone isoenzymes (human bone AP) [times] | effectiveness against intestinal isoenzymes (human intestinal AP) | order of effectiveness, intestinal isoenzymes (human intestinal AP) | inhibition of the intestinal isoenzymes (human intestinal AP) | IC50 (human intestinal AP; [6]) [mM] | times as potent/effective as L-phenylalanine, intestinal isoenzymes (human intestinal AP) [times] | times as potent/effective as levamisole, intestinal isoenzymes (human intestinal AP) [times] | inhibition of the E. coli AP (E. coli AP) [%] | inhibition of calf intestinal AP versus E. coli AP (calf intestinal AP [1]) | inhibition of calf intestinal AP versus L-phenylalanine and levamisole (calf intestinal AP [1]) | selectivity for human AP compared to levamisole (human AP) | effectiveness against placental isoenzymes (human placental AP) | sensitivity of tissue-nonspecific AP to inhibitor (tissue-nonspecific AP) | further results
c1ccc(Oc2ccc(C3CN4CCSC4=N3)cc2)cc1 (racemic) [API-1, (dl)-2,3,5,6-tetrahydro-6-(4-phenoxyphenyl)-imidazo[2,1-b]-thiazole] | APl-2>APl-1>levamisole>L-phenylalanine | 90 | 160 | 19 | 14 | APl-2>APl-1>levamisole | 4000 | 15 | much more effective inhibitors than levamisole and L-phenylalanine | APl-2>APl-1>L-phenylalanine>levamisole | 50-60% | 1 | 5 | 12 | ≤ 10 | inhibited calf intestinal AP more than E. coli AP | more efficient than L-phenylalanine and levamisole at inhibiting calf intestinal AP | much more selective inhibitors of human AP compared to levamisole | – | – | inhibition of bone isoenzymes (human bone AP; listed as APl-1): nearly complete inhibition at much lower concentrations compared to levamisole; inhibition of calf intestinal AP versus human intestinal AP (calf intestinal AP [1]; listed as APl-1): more effective in inhibiting human intestinal AP than calf intestinal AP; also recorded: calf intestinal AP is more resistant to inhibition
C1=CN2CC(c3ccc(Oc4ccccc4)cc3)N=C2S1 (racemic) [API-2, (dl)-5,6-dihydro-6-(4-phenoxyphenyl)-imidazo-[1,2-b]-thiazole] | APl-2>APl-1>levamisole>L-phenylalanine | 90 | 26 | 115 | 85 | APl-2>APl-1>levamisole | 600 | 100 | much more effective inhibitors than levamisole and L-phenylalanine | APl-2>APl-1>L-phenylalanine>levamisole | 50-60% | 0.2 | 23 | 60 | ≤ 10 | inhibited calf intestinal AP more than E. coli AP | more efficient than L-phenylalanine and levamisole at inhibiting calf intestinal AP | much more selective inhibitors of human AP compared to levamisole | – | – | times more potent than compound APl-1, placental isoenzymes (human placental AP; ratio to APl-1): about 6 times; inhibition of bone isoenzymes (human bone AP; listed as APl-2): nearly complete inhibition at much lower concentrations compared to levamisole; times as effective as APl-1, intestinal isoenzymes (human intestinal AP; ratio to APl-1): 5 times; inhibition of calf intestinal AP versus human intestinal AP (calf intestinal AP [1]; listed as APl-2): more effective in inhibiting human intestinal AP than calf intestinal AP; also recorded: calf intestinal AP is more resistant to inhibition
c1ccc(-c2ccc(C3CN4CCSC4=N3)cc2)cc1 (racemic) [API-3, (dl)-2,3,5,6-tetrahydro-6-(biphenyl)-imidazo-[1,2-b]-thiazole] | – | – | 500 | – | – | – | – | – | – | – | – | – | – | – | – | – | – | – | – | – | –
c1ccc([C@@H]2CN3CCSC3=N2)cc1 [D- counterpart] | – | – | – | – | – | – | – | – | – | – | – | – | – | – | – | – | – | – | – | – | AP inhibition by D- counterpart of levamisole (AP): not an AP inhibitor
N[C@@H](Cc1ccccc1)C(=O)O [L--Phe, L-phenylalanine, reference compound] | APl-2>APl-1>levamisole>L-phenylalanine | – | – | – | – | – | – | – | – | APl-2>APl-1>L-phenylalanine>levamisole | – | – | – | – | – | – | – | – | a lot less effective compared to compounds APl-1 and APl-2 | not sensitive; also recorded: does not inhibit tissue-nonspecific AP isoenzymes | IC50 (human placental AP): 3000 µM; inhibition of bone isoenzymes (human bone AP): does not inhibit bone isoenzymes; also recorded: activation of the bone isoenzymes; [I]50 Bone AP: concentration of inhibitor that gives 50% inhibition of enzyme activity (human bone AP; [5]): Activation; activation at 10000 µM (human bone AP; read-out: increase in activity of bone AP): ≤ 40%; IC50 (human intestinal AP): 4.5 mM
c1ccc([C@H]2CN3CCSC3=N2)cc1 [Levamisole, (L-)2,3,5,6-tetrahydro-6-phenylimidazo[1,2-b]thiazole, reference compound] | APl-2>APl-1>levamisole>L-phenylalanine | 80 | 2200 | – | – | – | – | – | – | APl-2>APl-1>L-phenylalanine>levamisole | 48% | 12 | – | – | 65 | – | – | – | a lot less effective compared to compounds APl-1 and APl-2 | strongly inhibited | effect on specific immuno-signal generated by calf intestinal AP (calf intestinal AP [2]): does not interfere with the specific immuno-signal generated by calf intestinal AP; inhibition of placental and intestinal isoenzymes [3]: only at much higher concentrations
